{"source": "patent US9937250B2", "about": "“Immunogenic tumor associated stromal cell antigen peptides and methods of their use” (University of Pittsburgh—Of the Commonwealth System of …, priority 2011, dated 2018)", "key": {"[1]": {"test_system": "MC38 tumor microenvironment", "assay": "Fluorescence imaging of MC38 tumor sections after prophylactic vaccination", "assay_type": "in vivo, HHD mice", "settings": "day 14 tumors; p<0.05 vs. untreated or DC.IL12/no peptide", "source_text": "Day 14 MC38 tumors were harvested from HHD mice that had been vaccinated as outlined in FIG. 9B with the indicated peptides (or control PBS or DC.IL12 alone=No peptide). In FIG. 10A, six-micron tissue sections were co-stained with anti-CD8 (green) and anti-NG2 (red) antibodies and imaged by fluorescence microscopy. Blue signal=nuclear counterstain using 4′,6-diamidino-2-phenylindole (DAPI). FIG. 10B provides a summary of the mean+/−SD number of CD8^+ cells per high-power field (HPF) in MC38 tumors isolated from control or vaccinated mice as depicted in FIG. 10A. In FIG. 10C, tissue sections were co-stained with anti-CD31 (green) and anti-NG2 (red) antibodies and imaged by fluorescence microscopy. Blue signal=nuclear counterstain using DAPI. In FIG. 10D, the mean+/−SD number of CD31^+ vessels per HPF of MC38 tumors in control or vaccinated mice are summarized Representative data is depicted from 1 of 3 independent experiments performed. *p<0.05 versus DC only or untreated control mice.\nFluorescence Imaging of Tumor Sections. Tumor tissue samples were prepared and 6 micron sections prepared as previously reported (Komita et al., Cancer Res., 68:8076-8084, 2008). The following Abs were used: (for T cell analyses), rabbit anti-mouse NG2 (Millipore, Bedford, Mass.) and alexa488-conjugated anti-CD4 or -CD8β antibodies or matching isotype controls (all from BD-Biosciences); (for vascular analyses), rat anti-mouse CD31 (BD-Biosciences) and rabbit anti-mouse NG2 (Millipore) Abs; (for TBVA), rat anti-mouse CD31 (BD-Biosciences) and guinea pig anti-mouse NG2 Abs, along with anti-TBVA as described in Example 1. Imaging was performed using an Olympus Fluoview 500 Confocal microscope (Olympus America, Center Valley, Pa.).\nProtective vaccines incorporating TBVA peptides promote enhanced infiltration of the TME by CD8^+ T cells in association with an inhibition of tumor vascularity. MC38 tumor lesions from all cohorts of animals with evidence of disease on day 14 (post-tumor inoculation) were isolated and immunofluorescence microscopy on tumor sections was performed. […] In marked contrast, CD4^+ T cell infiltration in the TME was sparse and the data were indistinguishable when comparing control vs. vaccinated mice (FIG. 17). […] Correlative analyses indicated an association between the anti-tumor efficacy of vaccines and their ability to promote CD8^+ T cell infiltration and reduced vascularity in the TME (FIG. 16)."}, "[2]": {"test_system": "CD8+ T cells from HLA-A2+ normal donors or HLA-A2+ melanoma patients", "assay": "In vitro sensitization of human CD8+ T cells with TASA peptide-pulsed autologous DC, IFN-γ ELISA against peptide-pulsed T2 cells", "assay_type": "cell-based", "outline": "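Autologous DC pulsed with 1 μM each TASA peptide pool for 4 h, then used at 10:1 T cell:DC to stimulate CD8+ T cells: twice weekly for normal donors (analysed day 12), once for melanoma patients (day 5). Responders cultured 24 h at 5:1 with T2 cells pulsed with 1 μM peptide or control; IFN-γ measured by ELISA.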"}}}
{"substance": "TEM1: TEM1-derived peptide 691-700 pulsed onto DC or DC.IL12 (LLVPTCVFLV; listed as Homo sapiens)", "values": [{"measurement": "Suppression in CD31+ vessel counts in the MC38 TME", "setting": "[1]", "result": "greatest degree of suppression in CD31^+ vessel counts"}, {"measurement": "Specific CD8+ T cell Production of IFN-γ in Response to TASA", "setting": "[2]; donor Mel1, melanoma patient", "result": "+ (Human responses were designated as + if T cell reactivity against T2 cells presenting the indicated peptide (IFN-γ ELISA) was >30 pg/ml and more than 2 fold higher than reactivity versus T2 cells pulsed with the negative control HIV-nef190-198 peptide)"}, {"measurement": "Specific CD8+ T cell Production of IFN-γ in Response to TASA", "setting": "[2]; donor Mel4, melanoma patient", "result": "+ (Human responses were designated as + if T cell reactivity against T2 cells presenting the indicated peptide (IFN-γ ELISA) was >30 pg/ml and more than 2 fold higher than reactivity versus T2 cells pulsed with the negative control HIV-nef190-198 peptide)"}, {"measurement": "Specific CD8+ T cell Production of IFN-γ in Response to TASA", "setting": "[2]; donor Mel7, melanoma patient", "result": "+ (Human responses were designated as + if T cell reactivity against T2 cells presenting the indicated peptide (IFN-γ ELISA) was >30 pg/ml and more than 2 fold higher than reactivity versus T2 cells pulsed with the negative control HIV-nef190-198 peptide)"}, {"measurement": "Specific CD8+ T cell Production of IFN-γ in Response to TASA", "setting": "[2]; donor Mel8, melanoma patient", "result": "+ (Human responses were designated as + if T cell reactivity against T2 cells presenting the indicated peptide (IFN-γ ELISA) was >30 pg/ml and more than 2 fold higher than reactivity versus T2 cells pulsed with the negative control HIV-nef190-198 peptide)"}, {"measurement": "Specific CD8+ T cell Production of IFN-γ in Response to TASA", "setting": "[2]; donor ND1, normal donor", "result": "+ (Human responses were designated as + if T cell reactivity against T2 cells presenting the indicated peptide (IFN-γ ELISA) was >30 pg/ml and more than 2 fold higher than reactivity versus T2 cells pulsed with the negative control HIV-nef190-198 peptide)"}, {"measurement": "Specific CD8+ T cell Production of IFN-γ in Response to TASA", "setting": "[2]; donor ND2, normal donor", "result": "+ (Human responses were designated as + if T cell reactivity against T2 cells presenting the indicated peptide (IFN-γ ELISA) was >30 pg/ml and more than 2 fold higher than reactivity versus T2 cells pulsed with the negative control HIV-nef190-198 peptide)"}, {"measurement": "Specific CD8+ T cell Production of IFN-γ in Response to TASA", "setting": "[2]; donor ND3, normal donor", "result": "+ (Human responses were designated as + if T cell reactivity against T2 cells presenting the indicated peptide (IFN-γ ELISA) was >30 pg/ml and more than 2 fold higher than reactivity versus T2 cells pulsed with the negative control HIV-nef190-198 peptide)"}, {"measurement": "Specific CD8+ T cell Production of IFN-γ in Response to TASA", "setting": "[2]; donor ND5, normal donor", "result": "+ (Human responses were designated as + if T cell reactivity against T2 cells presenting the indicated peptide (IFN-γ ELISA) was >30 pg/ml and more than 2 fold higher than reactivity versus T2 cells pulsed with the negative control HIV-nef190-198 peptide)"}]}
